Measured values published in paper PMC7459655 (Biomedicines, 2020).
Where “and” joins values, the source holds several entries; their conditions need not be identical. Identical values can stand only once.

Experiments:
[1] = tested on: P. falciparum CQ-sensitive strain 3D7
[2] = tested on: P. falciparum CQ-sensitive strain 3D7; assay: microbe, parasite or virus in culture; conditions: Plasmodium falciparum, 3D7, 72 h
in vitro = conditions: human
[3] = tested on: P. falciparum CQ-resistant strain Dd2; assay: microbe, parasite or virus in culture; conditions: Plasmodium falciparum, DD2, 72 h
[4] = tested on: non-infected erythrocytes
[5] = tested on: P. falciparum CQ-resistant strain Dd2
[6] = tested on: P. falciparum mature gametocytes (male gametogenesis); type: cell-based, Plasmodium falciparum
[7] = tested on: P. falciparum gametocyte-producing strain NF54 gametocytes; type: cell-based, Plasmodium falciparum
[8] = tested on: leukemia cell line Nalm-6

SMILES	antiplasmodial activity against 3D7 (in words) [1]	IC50 [2] [µM]	IC90 [2] [µM]	CC50 (in vitro) [µM]	SI (ratio of CC50 and IC50) [1]	IC50 [3] [µM]	hemolytic effect on erythrocytes (in words) [4]	SI (ratio of CC50 and IC50) [5]	antiplasmodial activity against Dd2 compared to 3D7 (in words) [5]	reduction in exflagellation (numbers of exflagellation centers) [6]	reduction of gametocyte development (stage IV and V gametocytes) [7]	cytotoxic effect, LDH release (in words) [8]	IC90 [3] [µM]
O[As]12(OC(C(F)(F)F)(C(F)(F)F)c3ccccc31)OC(C(F)(F)F)(C(F)(F)F)c1ccccc12 [As-5]	higher micromolar ranges	16.6 ± 3.09	149										
CC(C)[C@H]1COC(c2ccccc2[As](c2ccccc2)c2ccccc2)=N1 [As-10]	higher micromolar ranges	18.1 ± 3	163										
CCCCCCCCCCCC[As](=O)(CCCCCCCCCCCC)CCCCCCCCCCCC [As-11]	higher micromolar ranges	43 ± 5.7											
c1ccc(-c2ccccc2[As]23(OCCO2)OCCO3)cc1 [As-4]	lower micromolar ranges	8.64 ± 0.963	77.8	> 100	>12	30.1 ± 2.07	no hemolytic effect	>3	reduced antiplasmodial activities				
Cc1ccc2ccccc2c1[As](=O)(O)c1c(C)ccc2ccccc12 [As-8]	lower micromolar ranges	1.52 ± 0.089	13.7	> 100	>66	0.35 ± 0.099	no hemolytic effect	>286	increased activities	67% and 87%	about 60%	No noticeable cytotoxic effect	3.15
